Values of other authors in patent publication US20160375041A1, “INHIBITION OF ISOPRENOID BIOSYNTHETIC PATHWAYS TO TREAT AUTOIMMUNE DISORDERS” (priority 2013, published 2016).

Tested on: Vγ9Vδ2 TCR
Settings: microbial derived HMBPP; fold more potent as stimulatory pyrophosphate

Question: Which “potency relative to any other known, naturally-occurring pyrophosphate” value does the source give for `C/C(=C\COP(=O)(O)OP(=O)(O)O)CO` [HMBPP, (E)-4-Hydroxy-3-methyl-but-2-enyl pyrophosphate] here?
Answer: over 10,000
